From PMC11314561, “Design and Synthesis of Novel Aminoindazole-pyrrolo[2,3-b]pyridine Inhibitors of IKKα That Selectively Perturb Cellular Non-Canonical NF-κB Signalling” (Molecules, 2024)

Tests used:
Test in all cases: kinase panel
Type in all cases: biochemical
ASK1(h) = ASK1(h) (Homo sapiens, UniProt Q99683)
Method in brief: (§1)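 Values are percent inhibition from kinome-wide profiling of three series compounds across 231 kinases, with a structurally similar analogue tested on only 98 selected kinases.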

BTK(h) = BTK(h) (Homo sapiens, UniProt Q06187)
Method in brief: as §1

Blk(h) = Blk(h) (Homo sapiens, UniProt P51451)
Method in brief: as §1

BrSK2(h) = BrSK2(h) (Homo sapiens, UniProt Q8IWQ3)
Method in brief: as §1

CK1γ2(h) = CK1γ2(h) (Homo sapiens, UniProt P78368)
CK1γ2(h), sequence (P78368 whole entry): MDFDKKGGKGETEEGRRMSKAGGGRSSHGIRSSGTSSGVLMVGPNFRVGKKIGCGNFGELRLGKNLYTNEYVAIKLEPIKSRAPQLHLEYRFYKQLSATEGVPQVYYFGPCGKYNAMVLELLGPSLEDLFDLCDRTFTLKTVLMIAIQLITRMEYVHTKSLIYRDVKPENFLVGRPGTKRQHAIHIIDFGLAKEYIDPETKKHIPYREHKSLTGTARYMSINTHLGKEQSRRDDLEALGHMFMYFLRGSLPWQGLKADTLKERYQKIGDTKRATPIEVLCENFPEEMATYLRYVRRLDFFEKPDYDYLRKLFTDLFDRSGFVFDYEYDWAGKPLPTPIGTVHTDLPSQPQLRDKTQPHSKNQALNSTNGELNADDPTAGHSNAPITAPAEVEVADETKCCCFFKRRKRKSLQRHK
Method in brief: as §1

CK2α2(h) = CK2α2(h) (Homo sapiens, UniProt P19784)
CK2α2(h), sequence (P19784 whole entry): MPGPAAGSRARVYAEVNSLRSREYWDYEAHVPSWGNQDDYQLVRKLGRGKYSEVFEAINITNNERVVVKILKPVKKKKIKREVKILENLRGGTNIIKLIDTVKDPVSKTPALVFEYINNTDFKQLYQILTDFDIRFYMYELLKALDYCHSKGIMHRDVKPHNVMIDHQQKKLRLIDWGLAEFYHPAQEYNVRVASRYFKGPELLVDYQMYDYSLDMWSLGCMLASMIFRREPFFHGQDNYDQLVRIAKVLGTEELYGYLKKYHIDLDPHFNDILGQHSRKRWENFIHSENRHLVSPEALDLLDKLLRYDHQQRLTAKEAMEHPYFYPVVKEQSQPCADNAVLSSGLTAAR
Method in brief: as §1

EphA3(h) = EphA3(h) (Homo sapiens, UniProt P29320)
Method in brief: as §1

EphA4(h) = EphA4(h) (Homo sapiens, UniProt P54764)
Method in brief: as §1

EphA7(h) = EphA7(h) (Homo sapiens, UniProt Q15375)
Method in brief: as §1

EphB3(h) = EphB3(h) (Homo sapiens, UniProt P54753)
EphB3(h), sequence (P54753 34-998): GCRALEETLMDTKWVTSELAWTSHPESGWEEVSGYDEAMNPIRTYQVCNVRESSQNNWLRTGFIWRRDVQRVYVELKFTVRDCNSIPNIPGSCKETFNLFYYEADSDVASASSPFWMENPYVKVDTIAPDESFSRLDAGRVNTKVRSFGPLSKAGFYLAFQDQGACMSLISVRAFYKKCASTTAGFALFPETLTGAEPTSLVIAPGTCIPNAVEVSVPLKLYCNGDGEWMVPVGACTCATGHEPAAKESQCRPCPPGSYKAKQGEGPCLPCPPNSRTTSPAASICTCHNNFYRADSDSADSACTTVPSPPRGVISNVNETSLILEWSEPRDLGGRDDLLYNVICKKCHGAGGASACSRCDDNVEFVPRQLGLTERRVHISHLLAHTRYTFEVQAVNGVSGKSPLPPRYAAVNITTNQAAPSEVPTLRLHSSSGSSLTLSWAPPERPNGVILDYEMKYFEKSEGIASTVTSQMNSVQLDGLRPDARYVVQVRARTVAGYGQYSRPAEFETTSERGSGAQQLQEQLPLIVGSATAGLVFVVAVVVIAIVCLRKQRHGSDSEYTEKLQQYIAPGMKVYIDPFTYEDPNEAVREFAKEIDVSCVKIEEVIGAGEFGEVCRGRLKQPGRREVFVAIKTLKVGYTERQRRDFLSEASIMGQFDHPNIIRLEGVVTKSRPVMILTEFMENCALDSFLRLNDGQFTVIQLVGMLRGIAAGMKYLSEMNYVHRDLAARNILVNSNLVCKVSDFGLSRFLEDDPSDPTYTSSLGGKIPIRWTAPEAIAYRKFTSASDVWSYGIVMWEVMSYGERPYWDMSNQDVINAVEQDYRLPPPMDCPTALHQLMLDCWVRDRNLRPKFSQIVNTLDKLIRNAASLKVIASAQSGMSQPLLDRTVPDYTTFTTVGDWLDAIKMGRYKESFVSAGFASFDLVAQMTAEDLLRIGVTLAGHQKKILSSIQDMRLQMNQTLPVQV
Method in brief: as §1

EphB4(h) = EphB4(h) (Homo sapiens, UniProt P54760)
Method in brief: as §1

FGFR2(h) = FGFR2(h) (Homo sapiens, UniProt P21802)
Method in brief: as §1

FGFR4(h) = FGFR4(h) (Homo sapiens, UniProt P22455)
Method in brief: as §1

Fgr(h) = Fgr(h) (Homo sapiens, UniProt P09769)
Fgr(h), sequence (P09769 whole entry): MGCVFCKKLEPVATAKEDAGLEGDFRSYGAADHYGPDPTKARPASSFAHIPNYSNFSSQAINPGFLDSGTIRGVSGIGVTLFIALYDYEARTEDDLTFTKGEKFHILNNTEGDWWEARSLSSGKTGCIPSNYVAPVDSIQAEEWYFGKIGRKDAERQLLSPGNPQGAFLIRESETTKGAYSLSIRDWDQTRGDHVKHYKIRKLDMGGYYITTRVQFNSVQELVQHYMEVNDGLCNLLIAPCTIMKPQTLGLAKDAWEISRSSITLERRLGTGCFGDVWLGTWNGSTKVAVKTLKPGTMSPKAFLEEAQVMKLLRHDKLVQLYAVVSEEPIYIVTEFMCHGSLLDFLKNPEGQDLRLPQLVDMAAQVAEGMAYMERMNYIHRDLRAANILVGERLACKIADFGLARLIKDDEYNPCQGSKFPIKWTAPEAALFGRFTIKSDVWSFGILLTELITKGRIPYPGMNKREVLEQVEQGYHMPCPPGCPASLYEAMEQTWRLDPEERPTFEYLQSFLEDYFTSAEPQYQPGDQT
Method in brief: as §1

HIPK3(h) = HIPK3(h) (Homo sapiens, UniProt Q9H422)
Method in brief: as §1

IGF-1R(h), activated = IGF-1R(h), activated (Homo sapiens, UniProt P08069)
Method in brief: as §1

IRR(h) = IRR(h) (Homo sapiens, UniProt P14616)
Method in brief: as §1

JNK2α2(h) = JNK2α2(h) (Homo sapiens, UniProt P45984)
Method in brief: as §1

MAPKAP-K3(h) = MAPKAP-K3(h) (Homo sapiens, UniProt Q16644)
Method in brief: as §1

MKK6(h) = MKK6(h) (Homo sapiens, UniProt P52564)
Method in brief: as §1

MRCKα(h) = MRCKα(h) (Homo sapiens, UniProt Q5VT25)
Method in brief: as §1

MSK2(h) = MSK2(h) (Homo sapiens, UniProt O75676)
Method in brief: as §1

MuSK(h) = MuSK(h) (Homo sapiens, UniProt O15146)
Method in brief: as §1

NLK(h) = NLK(h) (Homo sapiens, UniProt Q9UBE8)
Method in brief: as §1

PAK4(h) = PAK4(h) (Homo sapiens, UniProt O96013)
Method in brief: as §1

PAK6(h) = PAK6(h) (Homo sapiens, UniProt Q9NQU5)
PAK6(h), sequence (Q9NQU5 whole entry): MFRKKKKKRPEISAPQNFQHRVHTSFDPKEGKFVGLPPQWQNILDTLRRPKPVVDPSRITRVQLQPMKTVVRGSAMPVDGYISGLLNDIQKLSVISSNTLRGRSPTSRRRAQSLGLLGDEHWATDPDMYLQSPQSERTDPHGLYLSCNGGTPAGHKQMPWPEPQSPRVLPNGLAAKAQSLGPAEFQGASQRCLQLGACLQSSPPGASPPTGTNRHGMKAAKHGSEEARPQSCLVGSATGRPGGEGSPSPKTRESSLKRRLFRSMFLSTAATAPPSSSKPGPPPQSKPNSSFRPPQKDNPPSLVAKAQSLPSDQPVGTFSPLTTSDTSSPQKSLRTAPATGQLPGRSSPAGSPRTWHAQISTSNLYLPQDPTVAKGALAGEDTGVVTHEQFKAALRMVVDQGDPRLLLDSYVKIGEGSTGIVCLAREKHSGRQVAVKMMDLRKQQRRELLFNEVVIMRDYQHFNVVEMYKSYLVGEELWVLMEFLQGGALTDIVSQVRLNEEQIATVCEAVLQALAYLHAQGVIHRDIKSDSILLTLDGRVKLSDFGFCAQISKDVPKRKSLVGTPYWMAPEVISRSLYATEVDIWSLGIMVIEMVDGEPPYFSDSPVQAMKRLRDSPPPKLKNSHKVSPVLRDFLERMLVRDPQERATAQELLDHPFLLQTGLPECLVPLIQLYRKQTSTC
Method in brief: as §1

PASK(h) = PASK(h) (Homo sapiens, UniProt Q96RG2)
Method in brief: as §1

PKCβI(h) = PKCβI(h) (Homo sapiens, UniProt P05771)
Method in brief: as §1

PKCβII(h) = PKCβII(h) (Homo sapiens, UniProt P05771)
PKCβII(h), sequence (P05771 1-673 isoform P05771-2): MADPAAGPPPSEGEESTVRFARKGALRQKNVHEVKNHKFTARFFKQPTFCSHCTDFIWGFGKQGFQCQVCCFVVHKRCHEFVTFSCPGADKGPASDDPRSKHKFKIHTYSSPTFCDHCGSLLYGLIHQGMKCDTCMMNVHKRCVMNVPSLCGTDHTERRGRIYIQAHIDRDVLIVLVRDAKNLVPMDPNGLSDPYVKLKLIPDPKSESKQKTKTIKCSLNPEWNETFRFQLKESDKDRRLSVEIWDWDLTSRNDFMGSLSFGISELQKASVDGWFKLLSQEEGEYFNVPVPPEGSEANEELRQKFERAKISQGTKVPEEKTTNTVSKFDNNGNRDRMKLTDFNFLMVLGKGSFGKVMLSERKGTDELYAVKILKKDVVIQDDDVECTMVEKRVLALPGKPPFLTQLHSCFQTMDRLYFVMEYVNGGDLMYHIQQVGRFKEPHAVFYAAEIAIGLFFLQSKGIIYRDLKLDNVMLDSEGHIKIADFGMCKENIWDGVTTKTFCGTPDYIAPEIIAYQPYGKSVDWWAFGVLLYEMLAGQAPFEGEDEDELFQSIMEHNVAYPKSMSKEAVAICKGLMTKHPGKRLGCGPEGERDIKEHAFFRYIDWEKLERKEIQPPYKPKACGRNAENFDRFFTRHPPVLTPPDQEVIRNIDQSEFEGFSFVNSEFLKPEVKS
Method in brief: as §1

PKG1α(h) = PKG1α(h) (Homo sapiens, UniProt Q13976)
PKG1α(h), sequence (Q13976 whole entry): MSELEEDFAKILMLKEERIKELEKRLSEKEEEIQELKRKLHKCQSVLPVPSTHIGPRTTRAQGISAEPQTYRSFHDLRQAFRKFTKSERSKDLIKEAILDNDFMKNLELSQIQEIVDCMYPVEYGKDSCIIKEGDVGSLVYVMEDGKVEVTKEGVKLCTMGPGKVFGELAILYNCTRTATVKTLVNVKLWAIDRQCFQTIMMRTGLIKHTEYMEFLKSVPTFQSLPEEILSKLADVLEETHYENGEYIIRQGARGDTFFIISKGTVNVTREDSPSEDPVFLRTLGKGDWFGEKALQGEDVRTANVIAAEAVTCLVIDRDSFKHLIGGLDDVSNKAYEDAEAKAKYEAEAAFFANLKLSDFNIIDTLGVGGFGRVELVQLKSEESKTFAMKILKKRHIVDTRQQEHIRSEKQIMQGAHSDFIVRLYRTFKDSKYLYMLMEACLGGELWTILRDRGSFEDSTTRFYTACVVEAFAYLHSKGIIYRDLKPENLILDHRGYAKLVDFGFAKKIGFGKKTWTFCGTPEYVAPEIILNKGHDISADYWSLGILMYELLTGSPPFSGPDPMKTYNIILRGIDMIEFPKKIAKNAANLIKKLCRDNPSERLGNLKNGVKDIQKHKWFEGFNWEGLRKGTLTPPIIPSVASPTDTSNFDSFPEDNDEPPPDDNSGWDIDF
Method in brief: as §1

Pim-3(h) = Pim-3(h) (Homo sapiens, UniProt Q86V86)
Method in brief: as §1

Plk3(h) = Plk3(h) (Homo sapiens, UniProt Q9H4B4)
Method in brief: as §1

PrKX(h) = PrKX(h) (Homo sapiens, UniProt P51817)
Method in brief: as §1

Ron(h) = Ron(h) (Homo sapiens, UniProt Q04912)
Method in brief: as §1

Rsk3(h) = Rsk3(h) (Homo sapiens, UniProt Q15349)
Rsk3(h), sequence (Q15349 whole entry): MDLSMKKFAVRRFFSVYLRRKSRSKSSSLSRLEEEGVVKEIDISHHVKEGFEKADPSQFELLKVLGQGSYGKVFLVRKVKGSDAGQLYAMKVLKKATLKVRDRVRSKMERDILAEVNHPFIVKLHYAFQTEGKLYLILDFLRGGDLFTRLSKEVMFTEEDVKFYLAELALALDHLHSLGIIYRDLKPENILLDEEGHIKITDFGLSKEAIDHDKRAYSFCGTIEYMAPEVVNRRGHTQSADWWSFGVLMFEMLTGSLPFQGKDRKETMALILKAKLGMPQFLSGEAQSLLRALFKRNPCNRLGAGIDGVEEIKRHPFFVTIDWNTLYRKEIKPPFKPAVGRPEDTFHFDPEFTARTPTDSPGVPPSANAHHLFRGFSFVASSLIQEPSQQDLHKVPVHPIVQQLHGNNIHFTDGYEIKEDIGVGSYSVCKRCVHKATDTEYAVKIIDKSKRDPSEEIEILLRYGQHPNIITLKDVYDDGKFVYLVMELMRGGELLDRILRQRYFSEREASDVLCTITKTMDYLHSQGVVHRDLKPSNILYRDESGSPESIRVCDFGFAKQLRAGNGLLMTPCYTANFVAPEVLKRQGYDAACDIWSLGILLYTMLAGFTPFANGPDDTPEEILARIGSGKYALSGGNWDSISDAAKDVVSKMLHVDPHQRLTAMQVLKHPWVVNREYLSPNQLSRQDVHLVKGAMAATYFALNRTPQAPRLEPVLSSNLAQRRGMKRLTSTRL
Method in brief: as §1

SGK2(h) = SGK2(h) (Homo sapiens, UniProt Q9HBY8)
Method in brief: as §1

SRPK1(h) = SRPK1(h) (Homo sapiens, UniProt Q96SB4)
Method in brief: as §1

Tec(h) activated = Tec(h) activated (Homo sapiens, UniProt P42680)
Method in brief: as §1

Tie2 (h) = Tie2 (h) (Homo sapiens, UniProt Q02763)
Method in brief: as §1

WNK2(h) = WNK2(h) (Homo sapiens, UniProt Q9Y3S1)
Method in brief: as §1

eEF-2K(h) = eEF-2K(h) (Homo sapiens, UniProt O00418)
Method in brief: as §1

Nc1n[nH]c2ccc(-c3ccnc4[nH]c(-c5ccccc5)cc34)cc12 [Compound 4]
inhibition at 1 µM (ASK1(h)): 18% | inhibition at 1 µM (BTK(h)): 11% | inhibition at 1 µM (Blk(h)): 37% | inhibition at 1 µM (BrSK2(h)): 41% | inhibition at 1 µM (CK1γ2(h)): 49% | inhibition at 1 µM (CK2α2(h)): 5% | inhibition at 1 µM (EphA3(h)): 19% | inhibition at 1 µM (EphA4(h)): 9% | inhibition at 1 µM (EphA7(h)): 26% | inhibition at 1 µM (EphB3(h)): 8% | inhibition at 1 µM (EphB4(h)): 53% | inhibition at 1 µM (FGFR2(h)): 79% | inhibition at 1 µM (FGFR4(h)): 8% | inhibition at 1 µM (Fgr(h)): 54% | inhibition at 1 µM (HIPK3(h)): 26% | inhibition at 1 µM (IGF-1R(h), activated): 61% | inhibition at 1 µM (IRR(h)): 26% | inhibition at 1 µM (JNK2α2(h)): 22% | inhibition at 1 µM (MAPKAP-K3(h)): 12% | inhibition at 1 µM (MKK6(h)): 17% | inhibition at 1 µM (MRCKα(h)): -22% | inhibition at 1 µM (MSK2(h)): 12% | inhibition at 1 µM (MuSK(h)): 48% | inhibition at 1 µM (NLK(h)): 51% | inhibition at 1 µM (PAK4(h)): 42% | inhibition at 1 µM (PAK6(h)): 32% | inhibition at 1 µM (PASK(h)): 65% | inhibition at 1 µM (PKCβI(h)): -2% | inhibition at 1 µM (PKCβII(h)): 9% | inhibition at 1 µM (PKG1α(h)): 29% | inhibition at 1 µM (Pim-3(h)): 10% | inhibition at 1 µM (Plk3(h)): -6% | inhibition at 1 µM (PrKX(h)): -21% | inhibition at 1 µM (Ron(h)): 53% | inhibition at 1 µM (Rsk3(h)): 53% | inhibition at 1 µM (SGK2(h)): 44% | inhibition at 1 µM (SRPK1(h)): 5% | inhibition at 1 µM (Tec(h) activated): 29% | inhibition at 1 µM (Tie2 (h)): 55% | inhibition at 1 µM (WNK2(h)): 29% | inhibition at 1 µM (eEF-2K(h)): 0%

Nc1n[nH]c2ccc(-c3ccnc4[nH]c(-c5cccc(OCc6ccccc6)c5)cc34)cc12 [Compound 5r [SU1261]]
inhibition at 1 µM (ASK1(h)): 23% | inhibition at 1 µM (BTK(h)): 3% | inhibition at 1 µM (Blk(h)): -4% | inhibition at 1 µM (BrSK2(h)): 9% | inhibition at 1 µM (CK1γ2(h)): 28% | inhibition at 1 µM (CK2α2(h)): 4% | inhibition at 1 µM (EphA3(h)): 0% | inhibition at 1 µM (EphA4(h)): 2% | inhibition at 1 µM (EphA7(h)): -3% | inhibition at 1 µM (EphB3(h)): -4% | inhibition at 1 µM (EphB4(h)): 25% | inhibition at 1 µM (FGFR2(h)): 39% | inhibition at 1 µM (FGFR4(h)): 6% | inhibition at 1 µM (Fgr(h)): 33% | inhibition at 1 µM (HIPK3(h)): 6% | inhibition at 1 µM (IGF-1R(h), activated): 32% | inhibition at 1 µM (IRR(h)): 1% | inhibition at 1 µM (JNK2α2(h)): -6% | inhibition at 1 µM (MAPKAP-K3(h)): -1% | inhibition at 1 µM (MKK6(h)): 2% | inhibition at 1 µM (MRCKα(h)): -18% | inhibition at 1 µM (MSK2(h)): -3% | inhibition at 1 µM (MuSK(h)): 13% | inhibition at 1 µM (NLK(h)): 1% | inhibition at 1 µM (PAK4(h)): 37% | inhibition at 1 µM (PAK6(h)): 22% | inhibition at 1 µM (PASK(h)): 16% | inhibition at 1 µM (PKCβI(h)): -6% | inhibition at 1 µM (PKCβII(h)): -1% | inhibition at 1 µM (PKG1α(h)): 30% | inhibition at 1 µM (Pim-3(h)): 6% | inhibition at 1 µM (Plk3(h)): -7% | inhibition at 1 µM (PrKX(h)): -22% | inhibition at 1 µM (Ron(h)): 7% | inhibition at 1 µM (Rsk3(h)): 27% | inhibition at 1 µM (SGK2(h)): 30% | inhibition at 1 µM (SRPK1(h)): 7% | inhibition at 1 µM (Tec(h) activated): 62% | inhibition at 1 µM (Tie2 (h)): 18% | inhibition at 1 µM (WNK2(h)): 22% | inhibition at 1 µM (eEF-2K(h)): -7%
